On the data set, the source says: Solubility may be determined by measuring the amount of light transmittance (a light transmittance value) through a simple mixture of the non-volatile silicone fluid and liquid activation enhancer at the same weight/weight concentrations as in a final antiperspirant composition.
Solubility of a liquid activation enhancer in a non-volatile silicone may be determined by measuring the amount of light transmittance (light transmittance value) through a simple mixture of the non-volatile silicone fluid and liquid activation enhancer at the same weight/weight concentrations as in a final antiperspirant composition.
The Spectronic Genesys 10 Vis utilizes a tungsten-halogen light source and has a spectral bandwidth of 5 nm, a wavelength range of 325 to 1100 nm, accuracy of ±1 nm and a repeatability of ±0.5 nm. Readouts include absorbance, transmittance and concentration. The spectrophotometer is set to 640 nm wavelength and the percent transmittance mode/readout. Polystyrene spectrometer cuvettes having a 1 cm optical light path and transmittance between ˜340 nm and ˜900 nm are used. One suitable example of a spectrometer cuvette is available from VWR International LLC under Catalog #97000-584 having a 2.5 to 4.5 ml capacity. The spectrophotometer is calibrated according to the manufacturer's instructions using a reference cuvette and composition comprised of just the non-volatile silicone fluid of interest. For example, if the test composition comprises 50 centistoke dimethicone and 15% w/w of isopropyl myristate, then the spectrometer is calibrated using a cuvette containing just 50 centistoke dimethicone. Sample cuvettes are filled sufficiently with a test composition of a non-volatile silicone fluid and liquid activation enhancer so that the light path of the spectrophotometer passes through the test composition in the cuvette. The sample cuvettes are shaken well just prior to taking a light transmittance reading.

With `CCCCCCCCCCCCCCCCCC(=O)OCCCC` [butyl stearate], the light transmittance value result is on record as “about 100%”.

Regarding `CCCCCCCCCCCCCC(C)C` [isohexadecane], the light transmittance value result is reported as “about 100%” and the “solubility in 50 centistoke dimethicone” value was “soluble”.

`CCCCCCCCCCCCCC(=O)OC(C)C` [isopropyl myristate]: the light transmittance value entry is “about 101%”.

Regarding `CCCCCCCCCCCCCCCC(=O)OC(C)C` [isopropyl palmitate], the light transmittance value result is “about 101%”.

Consider `CCCCCCCCCCC(CO)CCCCCCCC` (centres unmarked) [octyldodecanol], for which the “solubility in 50 centistoke dimethicone” value is recorded as “soluble in the 50 centistoke dimethicone at some (lower) concentrations”.

In the case of PPG-14 butyl ether, the “solubility in 50 centistoke dimethicone” value is “insoluble”.

Turning to mineral oil, the “solubility in 50 centistoke dimethicone” value was “soluble in 50 centistoke dimethicone at some (lower) concentrations”.

The record behind these values is patent US20150020916A1, “Antiperspirant Spray Devices and Compositions” (The Procter & Gamble Company, priority 2013, published 2015).
